Source: the NIST ThermoML archive (doi:10.1021/acs.jced.9b00507)

Assay: xn = mol fraction of the nth substance listed
Details: 100 kPa, Liquid; for mass density: Vibrating tube method; for viscosity: Concentric cylinders viscometry

CCCCCCn1cc[n+](C)c1.O=[N+]([O-])[O-] [1-hexyl-3-methylimidazolium nitrate] + CCCCCCCCCCO
Details	mass density, 308.15 K [kg/m3]	mass density, 313.15 K [kg/m3]	mass density, 318.15 K [kg/m3]	mass density, 323.15 K [kg/m3]	viscosity, 313.15 K [mPa·s]	viscosity, 318.15 K [mPa·s]	viscosity, 323.15 K [mPa·s]
x1 = 0.0818	845	841.4	837.9	834.4	7.41	5.98	4.95
x1 = 0.1583	868.7	865.1	861.6	858	8.15	6.21	5.14
x1 = 0.2414	894.2	890.6	887	883.4	8.97	6.44	5.28
x1 = 0.3482	926.4	922.8	919.2	915.6	10.16	7.1	5.6
x1 = 0.4414	954.2	950.5	946.9	943.3	11.94	8.12	6.07
x1 = 0.5593	988.6	984.9	981.4	977.8	16.52	9.93	7.03
x1 = 0.6481	1014.2	1010.5	1007	1003.5	23.5	13.43	9.04
x1 = 0.7414	1040.5	1036.9	1033.5	1030	35.97	22.34	15.67
x1 = 0.8496	1070.5	1067	1063.7	1060.4	67.47	47.97	36.3
x1 = 0.9402	1095.1	1091.7	1088.5	1085.3	123.98	92.14	73.7
x1 = 1	1111.1	1107.8	1104.7	1101.6	185.67	140.18	110.94
